Results: patent publication US20240325413A1, “FORMULATIONS FOR THE TREATMENT OF RESPIRATORY DISORDERS” (484 Science Corp, priority 2021, published 2024)

Key:
[1] = Next Generation Impactor (NGI) testing of pMDI prototype formulations; assay type: physicochemical; details: for Fine Particle Dose: Stages 3 to MOC; for Actual Emitted dose: Throat stage to MOC
Procedure: The Next Generation Pharmaceutical Impactor (NGI) testing is performed using Copley and MSP instruments. Emitted dose or Ex-device is calculated as the total dose deposited in the NGI apparatus starting from Throat stage to Micro-orifice collector (MOC). The Fine Particle Dose (FPD) is calculated as the total dose deposited in Stages 3 to MOC of the NGI apparatus. Mass Median Aerodynamic Diameter (MMAD) and Geometric Standard Deviation (GSD) is calculated from aerodynamic particle size distribution of particles in different stages of the NGI apparatus.

[2] = Total emitted dose of the APIs from pMDI prototype formulations, HPLC assay; assay type: physicochemical; parameters: unit not given here; details: pMDI Formulation 1-4; for emitted dose, Mean: Mean of ED 1 to ED 8
Procedure: An optimized HPLC assay method was developed for the assay of prototype formulations.
The total emitted dose from APIs ED 1 to ED 8 was then analyzed using the HPLC Assay.

SMILES	% Emitted dose ([1]; Formulation 1)	% Fine Particle Dose ([1]; Formulation 1)	GSD ([1]; Formulation 1)	MMAD ([1]; Formulation 1)	Fine Particle Dose ([1]; Formulation 1)	Actual Emitted dose ([1]; Formulation 1)	% Emitted dose ([1]; Formulation 4)	% Fine Particle Dose ([1]; Formulation 4)	GSD ([1]; Formulation 4)	MMAD ([1]; Formulation 4)	Fine Particle Dose ([1]; Formulation 4)	Actual Emitted dose ([1]; Formulation 4)	emitted dose ([2]; ED 7)	emitted dose ([2]; ED 8)	emitted dose, Mean [2]	% Emitted dose ([1]; Formulation 2)	% Fine Particle Dose ([1]; Formulation 2)	GSD ([1]; Formulation 2)	MMAD ([1]; Formulation 2)	Fine Particle Dose ([1]; Formulation 2)	further results
CCCCCc1cc(O)c2c(c1)OC(C)(CCC=C(C)C)C=C2 (stereo not shown) [CBC, cannabichromene]	89%	36%	3	4.5 µm	108.6 µg	266.1 µg	105%	36%	3	5.2 µm	71.1 µg	209.4 µg	262.4	269.8	266.1						
C=C(C)[C@@H]1CCC(C)=C[C@H]1c1c(O)cc(CCCCC)cc1O [CBD, cannabidiol, reference compound]	104%	41%	3	4.6 µm	122.8 µg	312.1 µg	96%	36%	3	4.75 µm	109.5 µg	288.1 µg	301.6	304.3	298.0	96%	37%	3	4.5 µm	111.0 µg	Actual Emitted dose ([1]; Formulation 2): 288.7 µg; % Emitted dose ([1]; Formulation 3): 101%; % Fine Particle Dose ([1]; Formulation 3): 40%; GSD ([1]; Formulation 3): 3; MMAD ([1]; Formulation 3): 4.4 µm; Fine Particle Dose ([1]; Formulation 3): 120.8 µg; Actual Emitted dose ([1]; Formulation 3): 303.0 µg; emitted dose ([2]; ED 1): 287.0; emitted dose ([2]; ED 2): 289.2; emitted dose ([2]; ED 3): 308.0; emitted dose ([2]; ED 4): 316.2; emitted dose ([2]; ED 5): 284.9; emitted dose ([2]; ED 6): 292.6
C=C(C)[C@@H]1CCC(C)=C[C@H]1c1c(O)cc(CCC)cc1O [CBDV, cannabidivarin]							98%	33%	3	5.1 µm	66.5 µg	195.2 µg	265.4	278.5	272.0						% Emitted dose ([1]; Formulation 3): 91%; % Fine Particle Dose ([1]; Formulation 3): 36%; GSD ([1]; Formulation 3): 3; MMAD ([1]; Formulation 3): 4.6 µm; Fine Particle Dose ([1]; Formulation 3): 108.0 µg; Actual Emitted dose ([1]; Formulation 3): 272.0 µg
CCCCCc1cc(O)c(C/C=C(\C)CCC=C(C)C)c(O)c1 [CBG, cannabigerol]	115%	43%	3	4.7 µm	129.5 µg	345.7 µg	106%	34%	3	5.25 µm	67.5 µg	212.1 µg	331.0	332.1	335.2	109%	39%	3	4.65 µm	118.0 µg	Actual Emitted dose ([1]; Formulation 2): 328.3 µg; % Emitted dose ([1]; Formulation 3): 111%; % Fine Particle Dose ([1]; Formulation 3): 43%; GSD ([1]; Formulation 3): 3; MMAD ([1]; Formulation 3): 4.5 µm; Fine Particle Dose ([1]; Formulation 3): 127.5 µg; Actual Emitted dose ([1]; Formulation 3): 331.6 µg; emitted dose ([2]; ED 3): 338.2; emitted dose ([2]; ED 4): 353.3; emitted dose ([2]; ED 5): 323.7; emitted dose ([2]; ED 6): 332.9
CCCCCc1cc(O)c2c(c1)OC(C)(C)c1ccc(C)cc1-2 [CBN, cannabinol]							95%	34%	3	5 µm	68.2 µg	189.1 µg	255.7	263.5	259.6	87%	35%	3	4.4 µm	105.8 µg	Actual Emitted dose ([1]; Formulation 2): 259.6 µg
C[N+]1(C)CCC(OC(=O)C(O)(c2ccccc2)C2CCCC2)C1 (stereo not shown) [Glycopyrronium, glycopyrronium, reference compound]	104%	29%	2	4.9 µm	7.8 µg	28.0 µg	104%	25%	2	5.65 µm	6.8 µg	28.1 µg	27.0	30.2	29.0	116%	28%	2	5.15 µm	7.7 µg	Actual Emitted dose ([1]; Formulation 2): 31.4 µg; % Emitted dose ([1]; Formulation 3): 106%; % Fine Particle Dose ([1]; Formulation 3): 31%; GSD ([1]; Formulation 3): 2; MMAD ([1]; Formulation 3): 5.1 µm; Fine Particle Dose ([1]; Formulation 3): 8.3 µg; Actual Emitted dose ([1]; Formulation 3): 28.6 µg; emitted dose ([2]; ED 1): 27.6; emitted dose ([2]; ED 2): 28.7; emitted dose ([2]; ED 3): 27.5; emitted dose ([2]; ED 4): 28.5; emitted dose ([2]; ED 5): 30.3; emitted dose ([2]; ED 6): 32.4
